“And” between values parts separate entries of the source, which are not always exact repeats. Equal entries are not always repeated. Where two headings read alike, the source gives them in different places.
Legend:
factor XIIa [1] = molecular target: T1, factor XIIa (Homo sapiens, UniProt P00748); experiment: Inhibition of factor XIIa: kinetics of hydrolysis of chromogenic substrate S2302; format: biochemical; conditions: for inhibition at 30 µM: read-out: Inhibition Activity at 30 µM, %; for IC50: substrate S2302, competitive inhibitor fit; for Selectivity for factor XIIa over coagulation factors Xa and XIa: from IC50 values of Figure 5
Procedure: (§1) The inhibition of factor XIIa by the synthesized compounds was studied by measuring the kinetics of hydrolysis of specific substrate S2302 (Chromogenics, Italy) in the presence of these compounds. A buffer containing 140 mM NaCl, 20 mM HEPES and 0.1% PEG 6000 (pH 7.4) was placed in the wells of a 96-well plate, followed by the addition of factor XIIa (final concentration 5 nM), solution of the test compound in DMSO (final concentration 30 μM), and substrate S2302 (Chromogenics, Italy) (final concentration 200 μM). The DMSO content in the well was no more than 2%. The kinetics of the formation of pNa were measured using a THERMOmax Microplate Reader (Molecular Devices Corporation, USA) by the absorption of light with a wavelength of 405 nm. The initial rate of substrate degradation was determined from the initial slope of the pNa formation curve. The rate of substrate degradation by the enzyme in the presence of the inhibitor was expressed as a percentage relative to the rate of substrate degradation in the absence of the inhibitor. The data obtained were processed using the GraphPad Prism and OriginPro 8 software. Ratio of specific substrate cleavage (S2302 for factor XIIa and S2765 for factor Xa) rate in presence of different inhibitor concentrations to these and the cleavage rate without inhibitor were determined to calculate IC50 values. Received curves (see Figures S18–S22) were approximated with the assumption that these were competitive inhibitors.

factor Xa = factor Xa (Homo sapiens, UniProt P00742); experiment: Inhibition of factor Xa: cleavage rate of specific substrate S2765; format: biochemical; conditions: >30 = no activity at 30 µM, IC50 not measured
Procedure: as §1
(§2) Figure 5 Structures of four identified inhibitors of the coagulation factor XIIa. IC50 values are shown for three coagulation factors: Xa, XIa, and XIIa. […] So, they are marked with ‘>30’ in a column with activity values. TEXT PRINTED IN THE PICTURE: 30901: IC50, μM: XIIa 19.67±1.31; IC50, μM: XIa > 30.00; IC50, μM: Xa 12.40±0.38 | 41453: IC50, μM: XIIa 25.88±1.77; IC50, μM: XIa > 30.00; IC50, μM: Xa > 30.00 | 225006: IC50, μM: XIIa 7.85±0.34; IC50, μM: XIa > 30.00; IC50, μM: Xa > 30.00 | 225738: IC50, μM: XIIa 12.95±0.32; IC50, μM: XIa > 30.00; IC50, μM: Xa > 30.00

factor XIa = factor XIa (Homo sapiens, UniProt P03951); experiment: Inhibition of factor XIa (off-target selectivity testing); format: biochemical; conditions: >30 = no activity at 30 µM, IC50 not measured
Procedure: At the first stage, virtual screening based on docking was carried out by the SOL program and the subsequent calculation of the enthalpy of protein–ligand binding by the PM7+COSMO method for the focused library of compounds selected from the database of druglike substances of the Department of Organic Chemistry of the Voronezh State University (VSU). This library consisted of 59 compounds, which were all previously tested against coagulation factors Xa and XIa. Among them, there were a few confirmed inhibitors of these proteins with micromolar activity. The presence of inhibition data for these off-targets allowed us to use selectivity data after the screening phase and better understand the quality of the identified hit series. Screening and testing the selected compounds from the focused library also helped clarify the threshold values of the scoring function of the SOL program, the binding enthalpy and, accordingly, adjust the screening process for further iterations.Virtual screening with the SOL program was carried out for 326 three-dimensional molecules. The original base of 59 ligands was expanded taking into account a few protomers, isomers, and conformers of these molecules. At the first stage, the selection of compounds was carried out based on the SOL scoring function. […] Note that the SOL scoring value for the docking of the original ligand (PDB ID 6B74) was −5.19 kcal/mol. Thus, the selection criterion covered a wider range of scoring values.
as §2

factor XIIa [2] = molecular target: T1, factor XIIa; conditions: read-out: IC50 factor XIIa (aminotriazole-based inhibitors); cited from earlier work
[3] = % of enzyme inhibition at 30 µM, averaged over three measurements

T1 sequence (P00748 373-615 limits assumed, other chains not shown): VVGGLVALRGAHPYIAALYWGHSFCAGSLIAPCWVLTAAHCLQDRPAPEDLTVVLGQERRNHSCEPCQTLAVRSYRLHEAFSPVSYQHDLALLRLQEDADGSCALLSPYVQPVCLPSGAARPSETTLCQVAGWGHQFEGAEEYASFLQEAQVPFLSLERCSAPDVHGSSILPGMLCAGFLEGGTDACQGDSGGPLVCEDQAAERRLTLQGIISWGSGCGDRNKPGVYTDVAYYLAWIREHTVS
Chain of factor XIa (P03951 388-625 limits assumed): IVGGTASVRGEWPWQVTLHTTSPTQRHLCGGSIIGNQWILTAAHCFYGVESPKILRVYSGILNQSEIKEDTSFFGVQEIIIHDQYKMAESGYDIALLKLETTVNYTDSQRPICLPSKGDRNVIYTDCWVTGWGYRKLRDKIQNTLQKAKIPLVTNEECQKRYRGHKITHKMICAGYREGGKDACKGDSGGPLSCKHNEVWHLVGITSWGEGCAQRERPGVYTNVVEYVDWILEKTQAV
Chain of factor XIa (P03951 19-387 partner limits assumed): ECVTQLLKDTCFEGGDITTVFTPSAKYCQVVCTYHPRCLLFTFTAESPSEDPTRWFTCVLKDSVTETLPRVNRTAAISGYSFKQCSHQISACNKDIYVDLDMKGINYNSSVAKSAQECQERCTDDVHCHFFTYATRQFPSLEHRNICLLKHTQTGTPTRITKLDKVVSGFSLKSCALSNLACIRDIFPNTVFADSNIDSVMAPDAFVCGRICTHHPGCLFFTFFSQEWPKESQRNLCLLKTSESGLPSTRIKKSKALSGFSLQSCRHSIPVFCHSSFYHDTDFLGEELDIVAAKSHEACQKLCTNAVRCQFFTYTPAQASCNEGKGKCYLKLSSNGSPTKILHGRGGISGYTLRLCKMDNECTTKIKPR
Chain of factor Xa (P00742 235-488 limits assumed): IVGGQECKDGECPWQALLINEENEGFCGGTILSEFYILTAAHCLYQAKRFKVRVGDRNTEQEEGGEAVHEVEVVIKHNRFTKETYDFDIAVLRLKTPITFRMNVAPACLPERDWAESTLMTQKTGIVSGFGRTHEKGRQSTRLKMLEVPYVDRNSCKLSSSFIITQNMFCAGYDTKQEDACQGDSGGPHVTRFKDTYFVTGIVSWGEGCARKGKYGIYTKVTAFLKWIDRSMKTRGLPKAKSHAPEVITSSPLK
Chain of factor Xa (P00742 41-179 partner limits assumed): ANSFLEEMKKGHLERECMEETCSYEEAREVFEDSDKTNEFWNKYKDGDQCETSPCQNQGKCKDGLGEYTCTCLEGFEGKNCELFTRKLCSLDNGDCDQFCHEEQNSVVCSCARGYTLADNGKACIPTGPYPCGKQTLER

SMILES	inhibition at 30 µM (factor XIIa [1]; [3]) [%]	IC50 (factor XIIa [1])	IC50 (factor Xa) [µM]	IC50 (factor XIa) [µM]	also measured
COc1cc2c3c(c1)/C(=N/OC(=O)c1ccccc1)C(=O)N3C(C)(C)C=C2C [compound 225746, 8-Methoxy-4,4,6-trimethyl-4H-pyrrolo[3,2,1-ij]quinoline-1,2-dione1-(O-benzoyloxime)]	0	–	–	–	–
CC1CCc2nc3oc(-c4ccccc4)cc3c(N)c2C1 (centres unmarked) [compound 224530, 6-Methyl-2-phenyl-5,6,7,8-tetrahydrofuro[2,3-b]quinolin-4-amine]	0	–	–	–	–
COc1cc2c3c(c1)C1(C(=O)N3C(C)(C)CC2C)C(C#N)=C(N)Oc2c1c(=O)oc1ccccc21 (centres unmarked) [compound 30901, 2-amino-8’-methoxy-4’,4’,6’-trimethyl-2’,5-dioxo-5’,6’-dihydro-2’H,4’H,5H-spiro[pyrano[3,2-c]chromene-4,1’-pyrrolo[3,2,1-ij]quinoline]-3-carbonitrile]	–	19.7 ± 1.31 µM	12.4 ± 0.38	> 30	–
CC1(C)CC2(CCCCC2)N2C(=O)C3(NCCc4c3[nH]c3ccccc43)c3cccc1c32 (stereo not drawn) [compound 41453, 6’,6’-Dimethyl-2,3,4,5’,6’,9-hexahydrodispiro[β-carboline-1,1’-pyrrolo[3,2,1-ij]quinoline-4’,1’’-cyclohexan]-2’-one]	–	~26 µM and 25.9 µM	> 30	> 30	Selectivity for factor XIIa over coagulation factors Xa and XIa (factor XIIa [1]): questionable
COc1ccc(C2C(C#N)=C(N)Oc3c2c(=O)[nH]c2ccccc32)cc1OC (centres unmarked) [compound 38756, 2-Amino-4-(3,4-dimethoxyphenyl)-5-oxo-5,6-dihydro-4H-pyrano[3,2-c]quinoline-3-carbonitrile]	15	–	–	–	–
COC(=O)c1c(C)[nH]c(-c2ccccc2)c1C1C(=O)N2c3c(cc(OC)cc31)C(C)=CC2(C)C (centres unmarked) [compound 225738, methyl 4-(8-methoxy-4,4,6-trimethyl-2-oxo-1,2-dihydro-4H-pyrrolo[3,2,1-ij]quinolin-1-yl)-2-methyl-5-phenyl-1H-pyrrole-3-carboxylate]	> 50	13 ± 0.32 µM	> 30	> 30	Selectivity for factor XIIa over coagulation factors Xa and XIa (factor XIIa [1]): selectively inhibit
COc1cc2c3c(c1)C(=NNC(=N)N)C(=O)N3C(C)(C)C=C2CN1CCN(c2ccc(F)cc2)CC1 [compound 225638, 2-[6-{[4-(4-Fluorophenyl)piperazin-1-yl]methyl}-8-methoxy-4,4-dimethyl-2-oxo-4H-pyrrolo[3,2,1-ij]quinolin-1(2H)-ylidene]hydrazinecarboximidamide]	27	–	–	–	–
Nc1c2c(nc3oc(-c4ccccc4Cl)cc13)CCCC2=O [compound 224533, 4-Amino-2-(2-chlorophenyl)-7,8-dihydrofuro[2,3-b]quinolin-5(6H)-one]	–	–	–	–	inhibition at 30 µM (factor XIIa [1]): 2%
CCc1cc2c3c(c1)C1(C(=O)N3C(C)(C)CC2C)C(C#N)=C(N)Oc2c1c(=O)[nH]c1ccccc21 (centres unmarked) [compound 38292, 2-Amino-8’-ethyl-4’,4’,6’-trimethyl-2’,5-dioxo-5,5’,6,6’-tetrahydro-4’H-spiro[pyrano[3,2-c]quinoline-4,1’-pyrrolo[3,2,1-ij]quinoline]-3-carbonitrile]	10	–	–	–	–
CC1CC(C)(C)N(C)c2cc3oc(=O)c(-c4cc(=O)[nH]c(N5CCOCC5)n4)cc3cc21 (centres unmarked) [compound 225006, 6,8,8,9-Tetramethyl-3-(2-morpholin-4-yl-6-oxo-1,6-dihydropyrimidin-4-yl)-6,7,8,9-tetrahydro-2H-pyrano[3,2-g]quinolin-2-one]	> 50	7.9 µM and 7.85 µM	> 30	> 30	Selectivity for factor XIIa over coagulation factors Xa and XIa (factor XIIa [1]): selectively inhibit
Nc1nc(-c2cnc3ccccc3n2)nn1C(=O)c1cccc2ccccc12 [aminotriazole_39b]	–	–	–	–	IC50 (factor XIIa [2]): 0.007 µM
COc1cc2c3c(c1)C(=NNC(=N)N)C(=O)N3C(C)(C)C=C2C [compound 225635, 2-(8-Methoxy-4,4,6-trimethyl-2-oxo-4H-pyrrolo[3,2,1-ij]quinolin-1(2H)-ylidene)hydrazinecarboximidamide]	0	–	–	–	–
COc1ccc(C(=O)c2cc3cc4c(cc3oc2=O)N(C)C(C)(C)CC4C)cc1 (centres unmarked) [compound 224870, 3-(4-Methoxybenzoyl)-6,8,8,9-tetramethyl-6,7,8,9-tetrahydro-2H-pyrano[3,2-g]quinolin-2-one]	0	–	–	–	–

Source: article PMC8876603, “New Blood Coagulation Factor XIIa Inhibitors: Molecular Modeling, Synthesis, and Experimental Confirmation” (Molecules, 2022)
